BigSolDB 2.1

c1ccc2oc(CSCc3nc4ccccc4o3)nc2c1
Settings | solubility (mole fraction)
in chlorobenzene, 274.85 K | 0.00424
in chlorobenzene, 278.15 K | 0.00514
in chlorobenzene, 283.15 K | 0.00684
in chlorobenzene, 287.95 K | 0.00889
in chlorobenzene, 292.95 K | 0.0119
in chlorobenzene, 298.35 K | 0.0157
in chlorobenzene, 303.25 K | 0.0205
in chlorobenzene, 308.15 K | 0.0262
in chlorobenzene, 313.25 K | 0.0341
in chlorobenzene, 318.05 K | 0.0427
in ethanol, 274.15 K | 0.00741
in ethanol, 278.15 K | 0.00978
in ethanol, 283.15 K | 0.014
in ethanol, 288.35 K | 0.02
in ethanol, 291.15 K | 0.0236
in ethanol, 293.15 K | 0.0279
in ethanol, 295.55 K | 0.0318
in ethanol, 298.15 K | 0.0377
in ethanol, 300.25 K | 0.0435
in ethanol, 302.95 K | 0.052
in ethanol, 305.15 K | 0.0578
in ethanol, 308.15 K | 0.0704
in isopropanol, 278.15 K | 0.00231
in isopropanol, 283.15 K | 0.00333
in isopropanol, 289.15 K | 0.00523
in isopropanol, 293.15 K | 0.00703
in isopropanol, 298.15 K | 0.0105
in isopropanol, 303.15 K | 0.014
in isopropanol, 308.15 K | 0.0194
in isopropanol, 313.15 K | 0.0268
in isopropanol, 318.15 K | 0.0372
in isopropanol, 323.15 K | 0.051
in n-butanol, 278.35 K | 0.00349
in n-butanol, 283.15 K | 0.00494
in n-butanol, 288.15 K | 0.00698
in n-butanol, 293.25 K | 0.00986
in n-butanol, 298.15 K | 0.0142
in n-butanol, 303.25 K | 0.0199
in n-butanol, 308.15 K | 0.0271
in n-butanol, 313.25 K | 0.0372
in n-butanol, 318.15 K | 0.0516
in n-butanol, 323.15 K | 0.0679
in o-xylene, 273.35 K | 0.000297
in o-xylene, 278.15 K | 0.000431
in o-xylene, 283.15 K | 0.00064
in o-xylene, 287.95 K | 0.000899
in o-xylene, 293.05 K | 0.00138
in o-xylene, 298.15 K | 0.00203
in o-xylene, 303.15 K | 0.00305
in o-xylene, 308.35 K | 0.00443
in o-xylene, 313.15 K | 0.00656
in o-xylene, 318.15 K | 0.00904
in toluene, 274.15 K | 0.000608
in toluene, 278.15 K | 0.000971
in toluene, 283.15 K | 0.00176
in toluene, 288.15 K | 0.00306
in toluene, 293.15 K | 0.00522
in toluene, 298.15 K | 0.00861
in toluene, 303.15 K | 0.0139
in toluene, 308.15 K | 0.024
in toluene, 313.25 K | 0.0292
in toluene, 318.15 K | 0.0413
